From patent US20230363389A1, “MAMMAL REPELLENT” (SCENT SCIENCE INTERNATIONAL INC., priority 2020, published 2023)

What was measured:
C57/BL6 male mice = experiment: Freezing test: innate fear (freezing) behavior of mice exposed to odor gas; type: in vivo, mouse; conditions: for freezing behavior-inducing activity (Freezing time): 10 ppm gas, 20 min observation, n = 6
Description: A 10 ppm gas was generated for 9 kinds of available odor molecules from those reported to have a repellent effect on birds by using a gas permeator (manufactured by GASTEC, PD-1B-2). Holes (4.5 cm and 12 cm high) were respectively drilled on opposite sides of a sealed test cage (17×17×18.5 cm), a tube for discharging the gas generated by the permeator was connected to the lower hole, the gas was introduced, and the higher hole allowed the air in the test cage to be released. After the air in the test cage was completely replaced by the odor gas, C57/BL6 male mice aged about 2 months to 6 months were put into the test cage (one mouse per cage), and the freezing behavior was analyzed by a freezing behavior automatic analyzer (manufactured by Actimetrics, Freeze Frame2) for 20 min. The time during which the mouse was motionless for 2 seconds or longer was measured as a freezing behavior, and the duration of freezing behavior within 20 minutes of observation time (Freezing time) was shown in %. Each experiment was performed with n = 6.
A constant concentration of the gas of the following various compounds was generated by a gas permeator (manufactured by GASTEC, PD-1B-2). When the concentration is not particularly indicated, an odor gas was generated at a concentration of 10 ppm. Holes (4.5 cm and 12 cm high) were respectively drilled on opposite sides of a sealed test cage (17×17×18.5 cm), a tube for discharging the gas generated by the permeator was connected to the lower hole, the gas was introduced, and the higher hole allowed the air in the test cage to be released. After the air in the test cage was completely replaced by the odor gas, C57/BL6 male mice aged about 2 months to 6 months were put into the test cage (one mouse per cage), and the freezing behavior was analyzed by a freezing behavior automatic analyzer (manufactured by Actimetrics, Freeze Frame2) for 20 min. The time during which the mouse was motionless for 2 seconds or longer was measured as a freezing behavior, and the duration of freezing behavior within 20 minutes of observation time (Freezing time) was shown in %. Each experiment was performed with n = 6. […]
A 10 ppm gas of thiophene and 2-acetylthiophene was generated using a gas permeator (manufactured by GASTEC, PD-1B-2). […] After the air in the test cage was completely replaced by the odor gas, C57/BL6 male mice aged about 2 months to 6 months were put into the test cage (one mouse per cage), and the freezing behavior was analyzed by a freezing behavior automatic analyzer (manufactured by Actimetrics, Freeze Frame2) for 20 min. The time during which the mouse was motionless for 2 seconds or longer was measured as a freezing behavior, and the duration of freezing behavior within 20 minutes of observation time (Freezing time) was shown in %. […]

birds = conditions: reported, Non-Patent Literature 5; cited from earlier work
mice = conditions: reported, Non-Patent Literature 5; cited from earlier work

Structure (SMILES): CC(=O)c1cccs1 [2-acetylthiophene]
- freezing behavior-inducing activity (Freezing time) (C57/BL6 male mice; Example 1, FIG. 1): induced a freezing behavior
- freezing behavior-inducing activity (Freezing time) (C57/BL6 male mice; Example 3, FIG. 3): very strong freezing behavior

Structure (SMILES): Cc1csc(C)n1 [2,4-dimethyl-thiazole]
- repellent activity in birds (birds): does not show repellent activity
- activity to induce freezing behavior in mice (mice): has an activity to induce freezing behavior

Structure (SMILES): c1ccsc1 [thiophene]
- freezing behavior-inducing activity (Freezing time) (C57/BL6 male mice; Example 3, FIG. 3): very low
- significant difference from no odor, student's t-test (C57/BL6 male mice; Example 3, freezing time versus no odor): no significant difference
